{"source": "patent US20230111672A1", "about": "“COMPOSITIONS AND METHODS FOR PRODUCTION OF RECOMBINANT ADENO-ASSOCIATED VIRUS” (The Regents of the University of California, priority 2020, published 2023)", "format_in_all_cases": "cell-based, human", "key": {"HEK 293T cells": {"tested_on": "HEK 293T cells", "test": "Cell cycle arrest by thymidine treatment, flow cytometry with DAPI or EdU incorporation", "conditions": "4 mM thymidine, 24 hrs post treatment", "protocol": "HEK 293T cells were treated with thymidine and analyzed using flow cytometry with DAPI (4′,6-diamidino-2-phenylindole) or EdU (5-ethynyl-2′-deoxyuridine) incorporation at 24 hrs post treatment.\nFIG. 1A-1B. Verification of cell cycle arrest by thymidine treatment. HEK293T cells were split into 10 cm′ cell culture dishes at 3.0e6 cells/plate. Thymidine stock was prepared with molecular biology grade distilled water at a concentration of 200 mM. The final concentration of thymidine in the culture medium was 4 mM. Two hrs before harvest, cells were incubated with EdU and were harvested for flow cytometry. DAPI staining and EdU assay were performed in accordance with the manufacturer's protocol."}, "HEK293T cells [1]": {"tested_on": "HEK293T cells", "test": "Total cell count prior to harvesting the cell pellet, rAAV packaging cultures", "conditions": "counted prior to harvest at 72 hrs post transfection", "protocol": "(§1) The effect of thymidine treatment for rAAV packaging was assessed with the following description. rAAV manufacturing in HEK293T cells was achieved by transfecting cells with the transgene (ss-CAG-eGFP), the adenoviral helper plasmid pHelper, and rAAV2(Rep/Cap) helper plasmid in accordance with the standard protocol of PEI (polyethyleneimine) transfection (Ojala et al. 2018). Thymidine was added onto media without media change at 24 or 48 hrs post transfection and then cell pellets were harvested at 72 hrs post transfection (FIG. 2).\n(§2) The number of total cells was counted for the evaluation of cell growth prior to harvesting the cell pellet (FIG. 3A). […] Next, cell lysate samples were incubated with Benzonase as well as DNase to remove residual plasmid, and rAAV titer with or without thymidine treatment was determined by quantitative polymerase chain reaction (qPCR) with specific primers for the transgene, eGFP (FIG. 3B). rAAV titer was then normalized to total cell count to compare viral titers in vg/cell (viral genomes/cell) (FIG. 3C).\nFIG. 3A-3C. rAAV titer at 72 h with thymidine treatment. HEK293T cells were split into 10 cm′ cell culture dishes at 3.0×10^6 cells/plate and transfected with the plasmids for rAAV packaging. Cell pellets at 72 hrs post transfection were lysed by freezing and thawing and then incubated with Benzonase, followed by DNase. […]"}, "HEK293T cells [2]": {"tested_on": "HEK293T cells", "test": "rAAV titer by qPCR at 72 hrs post transfection, rAAV packaging in HEK293T cells", "protocol": "as §1, §2\nFIG. 3A-3C. rAAV titer at 72 h with thymidine treatment. HEK293T cells were split into 10 cm′ cell culture dishes at 3.0×10^6 cells/plate and transfected with the plasmids for rAAV packaging. Cell pellets at 72 hrs post transfection were lysed by freezing and thawing and then incubated with Benzonase, followed by DNase. Subsequent Proteinase K digestion released AAV genome ssDNA from the AAV vector, which were subjected into qPCR for measuring rAAV genome copy number. Error bars, mean±SD. *P<0.05, (All statistics are the result of a student's two tailed t-test with paired variance)."}, "HEK293 cells": {"tested_on": "HEK293 cells", "test": "rAAV titer by qPCR at 96 hrs post transfection, rAAV packaging in HEK293 cells", "conditions": "HEK293, thymidine added 24 hrs post transfection, harvest at 96 hrs", "protocol": "To assess the generality of the result, HEK293 cells were tested, using a different packaging method than that used for HEK293T cells. HEK293 cells were seeded at high concentration and incubated for 72 hrs to reach 100% confluency and then transfected with plasmids. Thymidine was added 24 hrs post transfection, and pellets were harvested at 96 hrs post transfection (FIG. 4).\nFIG. 5. HEK293 Cells were seeded at 1.0×10^5 cell/cm′ into 10 cm′ cell culture dish and transfected with the plasmids for rAAV packaging. Thymidine was treated at 24 hrs post transfection and cell pellets were harvested at 96 hrs post transfection. rAAV titer was measured by qPCR in the same method of FIG. 3. Error bars, mean±SD."}, "HEK293T cells [3]": {"tested_on": "HEK293T cells", "test": "rAAV titer following transfection with and without pHelper", "conditions": "thymidine added at 24 hrs post transfection, harvest at 72 hrs", "source_text": "Plasmids containing adenoviral genes that promote AAV replication and vector production, such as pHelper, have previously been essential for rAAV packaging. That is, AAV requires co-infection of helper virus or introduction of a DNA-damaging agent to complete life cycle (Yakobson, Koch, and Winocour 1987; Yalklnoglu et al. 1988), functions that in rAAV manufacturing are typically replaced by transfection with a plasmid such as pHelper. The present disclosure provides the use of thymidine as a replacement for pHelper. The positive control cells were transfected with the three plasmids (AAV vector, AAV helper, pHelper) while the negative control cells were transfected without pHelper. In some samples, thymidine was added at 24 hrs post transfection (FIG. 6).\nFIG. 6. HEK293T cells were transfected with plasmids in accordance with the indication and then thymidine was added at 24 hrs post transfection. All cells were harvested at 72 hrs post transfection and rAAV titer were determined. Error bars, mean±SD."}}}
{"smiles": "Cc1cn([C@H]2C[C@H](O)[C@@H](CO)O2)c(=O)[nH]c1=O", "note": "[thymidine]", "values": [{"measurement": "EdU incorporation", "setting": "HEK 293T cells; EdU 2 hrs before harvest", "result": "no incorporation has occurred"}, {"measurement": "Cell cycle phase of cell population, total DNA stained by DAPI", "setting": "HEK 293T cells; flow cytometry", "result": "predominantly in the S-phase section"}, {"measurement": "Total cell count vs control group", "setting": "HEK293T cells [1]", "result": "lower cell count than the control group"}, {"measurement": "rAAV titer in vg/ml, fold higher than control", "setting": "HEK293T cells [2]; thymidine treatment 24-72h post transfection, qPCR", "result": 2.77, "unit": "fold"}, {"measurement": "rAAV titer, fold higher than that on control cells", "setting": "HEK293T cells [2]; thymidine treatment 24-72h post transfection, qPCR, basis not printed (second value after vg/ml)", "result": 5.38, "unit": "fold"}, {"measurement": "rAAV titer in vg/ml, fold higher than control", "setting": "HEK293T cells [2]; thymidine treatment 48-72h post transfection, qPCR", "result": 2.19, "unit": "fold"}, {"measurement": "rAAV titer in vg/cell, fold higher than control", "setting": "HEK293T cells [2]; thymidine treatment 48-72h post transfection, qPCR normalized to total cell count", "result": 3.52, "unit": "fold"}, {"measurement": "rAAV titer in vg/ml, fold higher than control cells", "setting": "HEK293 cells", "result": 1.75, "unit": "fold"}, {"measurement": "rAAV packaging in the absence of pHelper", "setting": "HEK293T cells [3]", "result": "rAAV was packaged in the absence of pHelper only when the thymidine was added"}]}
